# Tests used:
# [1] = tested on: MV4-11; assay: Antiproliferative activity against human MV4-11 cells assessed as inhibition of cell growth incubated for 72 hrs by CCK-8 assay; type: functional, cell-based; conditions: MV4-11, 72 h
# [2] = molecular target: Cyclin-dependent kinase 9 (Homo sapiens, UniProt P50750)
# Description: Inhibition of CDK9 (unknown origin) using ULight 4EBP1 peptide as substrate incubated for 2 hrs by FRET assay
# [3] = molecular target: Hepatocyte growth factor receptor (Homo sapiens, UniProt P08581); assay: Inhibition of human MET incubated for 1 hr by HTRF assay
# [4] = molecular target: Cyclin-dependent kinase 4 (Homo sapiens, UniProt P11802); assay: Inhibition of CDK4 (unknown origin) using ULight 4EBP1 peptide as substrate incubated for 2 hrs by FRET assay
# [5] = molecular target: T1, Tyrosine-protein kinase Tec (Homo sapiens, UniProt P42680); assay: Inhibition of human TEC incubated for 1 hr by HTRF assay
# T1 sequence (P42680 whole entry): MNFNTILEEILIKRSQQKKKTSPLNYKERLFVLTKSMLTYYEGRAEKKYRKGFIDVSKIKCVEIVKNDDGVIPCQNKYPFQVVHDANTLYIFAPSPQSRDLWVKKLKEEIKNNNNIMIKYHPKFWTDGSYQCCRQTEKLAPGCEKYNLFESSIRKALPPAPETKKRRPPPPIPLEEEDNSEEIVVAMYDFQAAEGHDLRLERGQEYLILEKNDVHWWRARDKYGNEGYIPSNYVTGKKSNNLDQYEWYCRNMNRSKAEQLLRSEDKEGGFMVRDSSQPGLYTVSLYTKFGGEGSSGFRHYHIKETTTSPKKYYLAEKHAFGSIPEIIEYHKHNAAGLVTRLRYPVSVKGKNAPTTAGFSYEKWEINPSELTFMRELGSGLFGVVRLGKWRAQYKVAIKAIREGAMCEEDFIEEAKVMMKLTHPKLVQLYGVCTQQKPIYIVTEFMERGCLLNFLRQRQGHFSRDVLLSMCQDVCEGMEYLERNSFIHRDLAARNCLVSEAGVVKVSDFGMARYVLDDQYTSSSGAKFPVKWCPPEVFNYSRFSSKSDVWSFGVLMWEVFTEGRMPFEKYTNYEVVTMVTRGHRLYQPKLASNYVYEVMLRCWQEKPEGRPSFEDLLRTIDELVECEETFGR
# [6] = molecular target: Tyrosine-protein kinase Blk (Homo sapiens, UniProt P51451); assay: Inhibition of human BLK incubated for 1 hr by HTRF assay
# [7] = molecular target: Cyclin-dependent kinase 3 (Homo sapiens, UniProt Q00526); assay: Inhibition of CDK3 (unknown origin) using ULight 4EBP1 peptide as substrate incubated for 2 hrs by FRET assay
# [8] = molecular target: T2, Aurora kinase A (Homo sapiens, UniProt O14965); assay: Inhibition of Aurora A (unknown origin)
# T2 sequence (O14965 whole entry): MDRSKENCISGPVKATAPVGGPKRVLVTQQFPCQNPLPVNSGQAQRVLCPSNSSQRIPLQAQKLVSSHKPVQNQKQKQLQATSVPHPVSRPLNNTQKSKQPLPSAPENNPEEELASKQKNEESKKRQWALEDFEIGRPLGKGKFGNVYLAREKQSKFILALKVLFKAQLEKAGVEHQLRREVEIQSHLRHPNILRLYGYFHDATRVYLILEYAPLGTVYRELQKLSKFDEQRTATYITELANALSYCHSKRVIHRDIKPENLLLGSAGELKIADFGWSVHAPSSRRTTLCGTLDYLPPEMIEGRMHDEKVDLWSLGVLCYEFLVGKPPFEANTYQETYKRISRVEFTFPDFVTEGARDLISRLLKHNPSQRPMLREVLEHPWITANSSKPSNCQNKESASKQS
# [9] = molecular target: Tyrosine-protein kinase Lyn (Homo sapiens, UniProt P07948); assay: Inhibition of human LYN incubated for 1 hr by HTRF assay
# [10] = molecular target: Cyclin-dependent kinase 1 (Homo sapiens, UniProt P06493); assay: Inhibition of CDK1 (unknown origin) using ULight 4EBP1 peptide as substrate incubated for 2 hrs by FRET assay
# [11] = molecular target: Cyclin-dependent kinase 5 (Homo sapiens, UniProt Q00535); assay: Inhibition of CDK5 (unknown origin) using ULight 4EBP1 peptide as substrate incubated for 2 hrs by FRET assay
# [12] = molecular target: Tyrosine-protein kinase BTK (Homo sapiens, UniProt Q06187); assay: Inhibition of human recombinant BTK incubated for 1 hr by HTRF assay
# [13] = molecular target: Insulin-like growth factor 1 receptor (Homo sapiens, UniProt P08069); assay: Inhibition of human IGF1R incubated for 1 hr by HTRF assay
# [14] = molecular target: Tyrosine-protein kinase HCK (Homo sapiens, UniProt P08631); assay: Inhibition of human HCK incubated for 1 hr by HTRF assay
# [15] = molecular target: T3, Ephrin type-A receptor 1 (Homo sapiens, UniProt P21709); assay: Inhibition of human EPHA1 incubated for 1 hr by HTRF assay
# T3 sequence (P21709 whole entry): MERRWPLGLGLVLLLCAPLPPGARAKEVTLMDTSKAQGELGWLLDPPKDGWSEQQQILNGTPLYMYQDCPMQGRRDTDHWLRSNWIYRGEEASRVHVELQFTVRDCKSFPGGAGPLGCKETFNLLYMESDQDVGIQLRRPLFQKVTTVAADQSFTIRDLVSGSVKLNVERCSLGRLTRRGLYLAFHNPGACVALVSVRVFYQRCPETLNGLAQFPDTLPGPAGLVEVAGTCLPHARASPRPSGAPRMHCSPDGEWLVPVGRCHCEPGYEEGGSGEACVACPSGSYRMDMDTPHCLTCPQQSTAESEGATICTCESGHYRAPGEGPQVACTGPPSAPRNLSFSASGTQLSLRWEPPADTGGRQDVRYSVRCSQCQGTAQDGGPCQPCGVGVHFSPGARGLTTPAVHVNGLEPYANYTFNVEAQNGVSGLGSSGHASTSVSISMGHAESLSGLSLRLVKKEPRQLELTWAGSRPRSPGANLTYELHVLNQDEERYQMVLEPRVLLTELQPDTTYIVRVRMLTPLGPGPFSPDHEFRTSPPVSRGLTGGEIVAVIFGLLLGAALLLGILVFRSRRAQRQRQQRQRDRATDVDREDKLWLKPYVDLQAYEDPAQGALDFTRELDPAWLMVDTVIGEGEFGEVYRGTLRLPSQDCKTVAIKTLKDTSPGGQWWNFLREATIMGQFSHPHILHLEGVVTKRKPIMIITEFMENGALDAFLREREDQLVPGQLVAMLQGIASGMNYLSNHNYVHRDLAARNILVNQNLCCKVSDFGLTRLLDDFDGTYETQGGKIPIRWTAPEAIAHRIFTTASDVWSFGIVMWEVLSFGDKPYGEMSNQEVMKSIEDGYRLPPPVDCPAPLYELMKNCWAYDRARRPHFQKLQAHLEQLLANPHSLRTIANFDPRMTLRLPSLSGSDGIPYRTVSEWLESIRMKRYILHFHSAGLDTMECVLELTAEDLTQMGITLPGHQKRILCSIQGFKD
# [16] = molecular target: Cyclin-dependent kinase 6 (Homo sapiens, UniProt Q00534); assay: Inhibition of CDK6 (unknown origin) using ULight 4EBP1 peptide as substrate incubated for 2 hrs by FRET assay
# [17] = molecular target: Cyclin-dependent kinase 2 (Homo sapiens, UniProt P24941); assay: Inhibition of CDK2 (unknown origin) using ULight 4EBP1 peptide as substrate incubated for 2 hrs by FRET assay
# [18] = molecular target: Epidermal growth factor receptor (Homo sapiens, UniProt P00533); assay: Inhibition of human EGFR incubated for 1 hr by HTRF assay
# [19] = molecular target: T4, Cytoplasmic tyrosine-protein kinase BMX (Homo sapiens, UniProt P51813); assay: Inhibition of human BMX incubated for 1 hr by HTRF assay
# T4 sequence (P51813 whole entry): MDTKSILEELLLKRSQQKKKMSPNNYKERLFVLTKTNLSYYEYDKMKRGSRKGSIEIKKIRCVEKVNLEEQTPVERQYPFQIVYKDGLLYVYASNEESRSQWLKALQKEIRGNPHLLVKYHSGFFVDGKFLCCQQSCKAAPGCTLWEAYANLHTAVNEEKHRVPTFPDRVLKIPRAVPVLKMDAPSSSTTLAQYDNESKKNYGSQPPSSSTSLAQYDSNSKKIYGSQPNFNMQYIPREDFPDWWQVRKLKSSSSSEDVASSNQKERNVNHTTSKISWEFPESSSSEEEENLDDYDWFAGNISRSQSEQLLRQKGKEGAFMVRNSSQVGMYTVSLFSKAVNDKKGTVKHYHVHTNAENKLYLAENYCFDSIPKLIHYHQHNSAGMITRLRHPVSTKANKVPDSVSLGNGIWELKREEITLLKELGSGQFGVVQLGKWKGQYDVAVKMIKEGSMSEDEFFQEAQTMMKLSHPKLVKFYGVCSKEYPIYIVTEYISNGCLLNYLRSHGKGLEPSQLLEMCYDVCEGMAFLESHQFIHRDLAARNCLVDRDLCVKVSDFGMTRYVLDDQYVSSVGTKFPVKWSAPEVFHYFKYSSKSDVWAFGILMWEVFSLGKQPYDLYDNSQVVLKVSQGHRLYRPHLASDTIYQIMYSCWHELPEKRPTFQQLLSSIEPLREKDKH
# [20] = molecular target: Cyclin-dependent kinase 7 (Homo sapiens, UniProt P50613); assay: Inhibition of CDK7 (unknown origin) using ULight 4EBP1 peptide as substrate incubated for 2 hrs by FRET assay
structure (smiles),measurement,setting,value
CN(C)C/C=C/C(=O)Nc1ccc(C(=O)Nc2cccc(Nc3ncc(Cl)c(-c4c[nH]c5ccccc45)n3)c2)cc1,IC50,[1],30.7 nM
COC[C@@H](C)N[C@H]1CC[C@H](Nc2cc(-c3cccc(NCC4(C#N)CCOCC4)n3)c(Cl)cn2)CC1,IC50,[2],3.57 nM
CC(=O)N[C@H]1CC[C@H](c2ncc(Cl)c(Nc3ccccc3S(=O)(=O)C(C)C)n2)CC1,IC50,[3],> 10000 nM
same,IC50,[4],645 nM
same,IC50,[5],> 10000 nM
same,IC50,[6],> 10000 nM
same,IC50,[7],370 nM
same,IC50,[8],1320 nM
same,IC50,[9],> 10000 nM
same,IC50,[10],> 10000 nM
same,IC50,[11],3680 nM
same,IC50,[12],> 10000 nM
same,IC50,[13],2890 nM
same,IC50,[14],> 10000 nM
same,IC50,[15],2480 nM
same,IC50,[16],1350 nM
same,IC50,[17],735 nM
same,IC50,[18],> 10000 nM
same,IC50,[19],> 10000 nM
Cn1ncc(-c2nc(N[C@H]3CC[C@H](N)CC3)ncc2Cl)c1CC1CC1 [BTX-A51],IC50,[2],18.6 nM
same,IC50,[1],158 nM
same,IC50,[20],272 nM

# From ChEMBL document CHEMBL5579874, “Design, Synthesis, and Biological Evaluation of 2,4-Diaminopyrimidine Derivatives as Potent CDK7 Inhibitors” (ACS Med Chem Lett, 2024)
